{"source": "patent US20150267174A1", "about": "“REPROGRAMMING PEPTIDE AND USE THEREOF” (priority 2012, published 2015)", "type_in_all_cases": "cell-based", "key": {"[1]": {"tested_on": "Human adult fibroblast strain TIG113", "assay": "Spheroid formation after reverse transfection of peptide into fibroblasts", "conditions": "for degree of spheroid formation: number of ES cell colony-like spheroids, peptide 30 μg/well solid-phased on 12 well plate, 2×10^4 cells seeded, measured 7-10 days later; for spheroid formation ability (in words): reverse transfection, TIG113", "protocol": "Human adult fibroblast strain TIG113 was cultured in a medium mainly containing 10% fetal bovine serum-containing EMEM under humidified conditions at 37° C. and 5% CO2 until it reached 1×10^7 cells. A plate for reverse transfection was prepared by applying each peptide shown in Table 1 to each well of a 12 well plate at a concentration of 30 μg/well, and forming a solid phase by air-drying. Grown TIG113 was washed with CMF-PBS, and incubated in 0.25% trypsin solution at 37° C. for 10-15 min to dissociate the cells. Centrifugation and washing with PBS were repeated twice and the cells were suspended in iPS medium (manufactured by ReproCELL Incorporated). Using the cell suspension, human fibroblast was seeded at 2×10^4 cells on a plate for reverse transfection. As a reverse transfection medium, an iPS medium containing 10% fetal bovine serum and not containing bFGF was used. The number of ES colony-like spheroids formed was measured 7-10 days later, and the spheroid formation degree was evaluated (Table 1). In an experiment using the peptides of H11, H16, and H29, the ratio of the cells forming spheroid was calculated."}, "[2]": {"tested_on": "Human adult fibroblast strain TIG113", "assay": "Marker expression (immunostaining, alkaline phosphatase staining) of spheroid cells", "protocol": "The pluripotent spheroid cell obtained in Example 1, by introducing a reprogramming peptide into differentiated cell, was examined for undifferentiation, expression of nerve marker and the like.\nUsing the H11 peptide shown in Table 1, the cells were made to form spheroid according to the method shown in Example 1, and incubated in 1% H2O2 containingmethanol at room temperature for 5 min to immobilize the cells. The cells were washed five times with PBS, and blocked with PBS containing 5% FBS/0.05% gelatin/3% skim milk/1% BSA (hereinafter Block Ace) at room temperature for 1-2 hr. Furthermore, the cells were reacted at room temperature for 2 hr with the primary antibody shown in Table 2 and appropriately diluted with Block Ace. The cells were washed five times with PBS, and the HPR-labeled secondary antibody was appropriately diluted with Block Ace and reacted at room temperature for 1 hr. Lastly, the cells were washed five times with PBS, and the antigen was visualized according to the protocol of Peroxidase Stain DAB Kit &enhancer (Nacalai Tesque).\nFor alkaline phosphatase staining, the cells immobilized by the aforementioned method were incubated at room temperature for 30 min using BCIP/NBT Color Development Substrate (Promega). The reaction was quenched by washing five times with PBS."}, "[3]": {"tested_on": "human fibroblast (manufactured by KURABO INDUSTRIES LTD.)", "assay": "Spheroid formation and marker expression using human adult fibroblast", "description": "Using a method similar to that of Example 1, H11 peptide was introduced into human fibroblast (manufactured by KURABO INDUSTRIES LTD.).\nThe prepared spheroid was subjected to expression analysis of pluripotency marker and differentiation marker according to the method of Example 2. As a result, it was positive to pluripotency markers of alkaline phosphatase, SSEA-3, TRA-1-61, Oct3/4, Sox2, and Nanog. Furthermore, the expression of neural stem cell marker nestin, nerve marker neurofilament 160, βIII tubulin, MAP2, and GFAP was confirmed by continuous culture. Furthermore, the expression of insulin producing cell marker proinsulin, and C-peptide was also confirmed."}, "A549": {"tested_on": "A549", "assay": "Spheroid formation and marker staining in various cells", "description": "(§1) By a method similar to that of Example 1, H11 peptide was introduced into BHK21, A549, H293 cell, mouse feeder cell (COSMO BIO co., ltd.: RCHEFC003), bovine vascular endothelial cell (TOYOBO CO., LTD.: CAB300K05), and swine vascular endothelial cell (TOYOBO CO., LTD.: CAP300K05)."}, "BHK21": {"tested_on": "BHK21", "assay": "Spheroid formation and marker staining in various cells", "description": "as §1"}, "H293 cell": {"tested_on": "H293 cell", "assay": "Spheroid formation and marker staining in various cells", "description": "as §1"}, "[4]": {"tested_on": "bovine vascular endothelial cell", "assay": "Spheroid formation and marker staining in various cells", "description": "as §1"}, "mouse feeder cell": {"tested_on": "mouse feeder cell", "assay": "Spheroid formation and marker staining in various cells", "description": "as §1"}, "[5]": {"tested_on": "swine vascular endothelial cell", "assay": "Spheroid formation and marker staining in various cells", "description": "as §1"}, "[6]": {"tested_on": "Human adult fibroblast strain TIG113", "assay": "CD105/CD146/CD31 antibody staining of spheroid cells", "protocol": "The pluripotent spheroid cell obtained in Example 1 by introducing a reprogramming peptide into a differentiated cell was examined for undifferentiation, and expressions of nerve marker and the like.\nUsing the H11 peptide shown in Table 1, the cells were made to form spheroid according to the method shown in Example 1 and incubated using 1% H2O2-containing methanol at room temperature for 5 min, and immobilized.\nUsing the antibody described in Table 3, cells were stained according to a package insert. As the secondary antibody, HRP-labeled goat anti-mouse IgG antibody (manufactured by Promega KK, Goat Anti-Mouse IgG (H+L), HRP Conjugate) was used."}}, "note": "Square brackets hold non-standard residues; d marks the D form. Cysamide = C-terminal cysteamide"}
{"substance": "Ac-GALFLGFLGAAGSTMGA/WSQ/KKRTLRKNDRKKR-Cysamide (Ac-GALFLGFLGAAGSTMGAWSQKKRTLRKNDRKKR-Cysamide) [H36]", "values": [{"measurement": "degree of spheroid formation", "setting": "[1]", "value": "+++ (+++ about 50-100)"}]}
{"substance": "Ac-GALFLGFLGAAGSTMGAWSQGKKRSKA-Cysamide [H29]", "values": [{"measurement": "degree of spheroid formation", "setting": "[1]", "value": "+++ (+++ about 50-100)"}, {"measurement": "spheroid formation ability (in words)", "setting": "[1]", "value": "has spheroid formation ability"}]}
{"substance": "Ac-GALFLGFLGAAGSTMGAmSQPKSKRKV-Cysamide (Ac-GALFLGFLGAAGSTMGA[dM]SQPKSKRKV-Cysamide) [H10]", "values": [{"measurement": "degree of spheroid formation", "setting": "[1]", "value": "+ (+ about −10)"}]}
{"substance": "Ac-GALFLGFLGAAGSTMGA-Cysamide [H13]", "values": [{"measurement": "spheroid formation ability (in words)", "setting": "[1]", "value": "no spheroid formation ability"}]}
{"substance": "Ac-GALFLGFLGAAGSTMGA/WSQ/RSRKYTSWYVALKR-Cysamide (Ac-GALFLGFLGAAGSTMGAWSQRSRKYTSWYVALKR-Cysamide) [H37]", "values": [{"measurement": "degree of spheroid formation", "setting": "[1]", "value": "+++ (+++ about 50-100)"}]}
{"substance": "Ac-GALFLGFLGAAGSTMGAWSQPKSKRKV-Cysamide [H6]", "values": [{"measurement": "degree of spheroid formation", "setting": "[1]", "value": "+ (+ about −10)"}]}
{"substance": "GALFLGFLGAAGSTMGAWSQPKSKRKV (Reprogramming peptide) [H1]", "values": [{"measurement": "degree of spheroid formation", "setting": "[1]", "value": "++ (++ about 10-50)"}]}
{"substance": "Ac-PKKKRKV-Cysamide [H18, SV40 Large T antigen NLS]", "values": [{"measurement": "spheroid formation ability (in words)", "setting": "[1]", "value": "Spheroid is not formed"}]}
{"substance": "GALFLGFLGAAGSTMGAmSQPKSKRKV (GALFLGFLGAAGSTMGAMSQPKSKRKV; not fully specified; D-Met; Reprogramming peptide) [H5]", "values": [{"measurement": "degree of spheroid formation", "setting": "[1]", "value": "+ (+ about −10)"}]}
{"substance": "Ac-RQIKIWFQNRRMKWKKWSQGKKRSKA-Cysamide [H31]", "values": [{"measurement": "degree of spheroid formation", "setting": "[1]", "value": "+ (+ about −10)"}]}
{"substance": "Ac-GALFLGFLGAAGSTMGAWSQPKKKRKV-Cysamide [H11]", "values": [{"measurement": "degree of spheroid formation", "setting": "[1]", "value": "+++ (+++ about 50-100)"}, {"measurement": "expression of pluripotent markers alkaline phosphatase, Oct3/4, Sox2, Nanog, SSEA-3, Tra-1-81", "setting": "[2]; spheroid cells from TIG113", "value": "express"}, {"measurement": "expression of proinsulin and C-peptide (insulin producing cell markers)", "setting": "[2]; spheroid cells from TIG113", "value": "confirmed"}, {"measurement": "expression of nestin, neurofilament 160, βIII tubulin, MAP2, GFAP", "setting": "[2]; when the culture period becomes long", "value": "confirmed"}, {"measurement": "expression of alpha-fetoprotein and albumin", "setting": "[3]", "value": "confirmed"}, {"measurement": "expression of proinsulin and C-peptide", "setting": "[3]", "value": "confirmed"}, {"measurement": "oil red O staining", "setting": "[3]", "value": "differentiation into adipose tissue was found"}, {"measurement": "expression of nestin, neurofilament 160, βIII tubulin, MAP2, GFAP", "setting": "[3]; continuous culture", "value": "confirmed"}, {"measurement": "spheroid formation", "setting": "[3]; human fibroblast (KURABO)", "value": "finally formed spheroid"}, {"measurement": "pluripotency markers alkaline phosphatase, SSEA-3, TRA-1-61, Oct3/4, Sox2, Nanog", "setting": "[3]; prepared spheroid", "value": "positive"}, {"measurement": "alkaline phosphatase, SSEA-3 staining", "setting": "A549", "value": "positive"}, {"measurement": "spheroid formation", "setting": "A549", "value": "formed spheroids"}, {"measurement": "alkaline phosphatase, SSEA-3 staining", "setting": "BHK21", "value": "positive"}, {"measurement": "spheroid formation", "setting": "BHK21", "value": "formed spheroids"}, {"measurement": "alkaline phosphatase, SSEA-3 staining", "setting": "H293 cell", "value": "positive"}, {"measurement": "spheroid formation", "setting": "H293 cell", "value": "formed spheroids"}, {"measurement": "alkaline phosphatase, SSEA-3 staining", "setting": "[4]", "value": "positive"}, {"measurement": "spheroid formation", "setting": "[4]", "value": "formed spheroids"}, {"measurement": "alkaline phosphatase, SSEA-3 staining", "setting": "mouse feeder cell", "value": "positive"}, {"measurement": "spheroid formation", "setting": "mouse feeder cell", "value": "formed spheroids"}, {"measurement": "alkaline phosphatase, SSEA-3 staining", "setting": "[5]", "value": "positive"}, {"measurement": "spheroid formation", "setting": "[5]", "value": "formed spheroids"}, {"measurement": "mesenchymal stem cell marker CD105", "setting": "[6]", "value": "positive"}, {"measurement": "pericyte marker CD146", "setting": "[6]", "value": "positive"}, {"measurement": "vascular endothelial cell marker CD31", "setting": "[6]", "value": "negative"}]}
